Experimental data reported in patent EP0028305A1, “Diaryl compounds and pharmaceutical formulations containing them” (THE WELLCOME FOUNDATION LIMITED, priority 1979, dated 1981).
Where a name gives a salt, the structure may show the parent alone. Read-outs that look alike come from different tables or passages of the source.

How the values were obtained:
virus [1] = assay: plaque reduction (PR) test; assay type: cell-based; details: read-out: PR(ED50/µM)
Description: (§1) Activity may be detected by the plaque inhibition (PI) test and measured by the plaque reduction (PR) test. Both assays involve the formation of a monolayer cell culture in a petri dish followed by infection with a virus suspension, and then overlaying the culture with nutrient agarose in the form of a gel. This gel ensures that there is no spread of virus throughout the culture and thus areas of localised cell destruction or plaques are formed.
Detectable activity is measured with the plaque reduction assay. A range of concentrations of compounds of known molarity are incorporated in the nutrient agarose overlay. Plaque suppression is proportional to compound concentration. Plaque numbers are expressed as percentages of a control, and a dose response curve may be drawn. From this curve 50% of the effective dose (ED50) may be estimated.

virus [2] = assay: intranasal administration, simulation in vitro (plaque formation, compound applied to petri dish lid); assay type: cell-based; details: lug dissolved in ethanol, applied to lids of petri dishes, ethanol evaporated; compound penetrated the agarose layer
Excerpt: as §1
In the plaque inhibition test a filter paper disc which holds 0.01 ml when impregnated with a solution of a compound is placed on top of the agarose gel. The compound may then diffuse throughout the gel so that its greatest concentration will be around the disc and its lowest concentration towards the periphery of the petri dish. The efficacy of the compound may be detected by observing the zone of inhibition of plaque formation.
Petri dishes were prepared, as for the plaque inhibition test and the confluer sheet of cells was covered with a layer of agarose gel. The compound, of Example 12 (lug) was dissolved in ethanol, and applied to the lids of the petri dishes. When the ethanol had evaporated, leaving the compound spread over the inside of the lids, these were replaced on the petri dishes.

[3] = plaque reduction assay, compound incorporated in nutrient agarose overlay
[4] = second value printed in parentheses in the same cell, meaning not explained

SMILES	EC50 (virus [1]; [3]) [µM]	EC50 (virus [1]; [4]) [µM]	inhibition of plaque formation (virus [2])
Clc1ccc(CNc2ccccc2)cc1Cl [Example 1, N-3,4-dichlorobenzylaniline hydrochloride]	0.17	–	–
O=[N+]([O-])c1ccccc1OCc1ccc(Cl)cc1 [Example 2, 4-chlorobenzyl 2-nitrophenyl ether]	1.2	–	–
CCc1ccc(OCc2ccc(Cl)cc2)cc1 [Example 3, 4-Chlorobenzyl 4-ethylphenyl ether]	0.72	–	–
CC(C)(C)c1cccc(OCc2ccc(Cl)cc2)c1 [Example 4, 4-Chlorobenzyl 3-t-butylphenyl ether]	1.9	5	–
Clc1ccc(COc2ccc(Cl)c(Cl)c2)cc1Cl [Example 5, 3,4-Dichlorobenzyl 3,4-dichlorophenyl ether]	0.47	–	–
FC(F)(F)c1cccc(OCc2ccccc2)c1 [Example 6, Benzyl 3-trifluoromethylphenyl ether]	0.66	1.7	–
N#Cc1ccc(OCc2ccc(Cl)cc2)cc1 [Example 7, 4-Chlorobenzyl 4-cyanophenyl ether]	0.22	–	–
Cc1ccc(COc2ccc(C)cc2)cc1 [Example 8, 4-Methylbenzyl 4-methylphenyl ether]	0.56	–	–
O=C(O)c1ccc(OCc2ccc(Cl)cc2)cc1 [Example 9, 4-Chlorobenzyl 4-carboxyphenyl ether]	1.6	–	–
Clc1cc(COc2ccccc2)cc(Cl)c1Cl [Example 10, 3,4,5-Trichlorobenzyl phenyl ether]	1.6	–	–
Clc1ccc(COc2ccc(Cl)c(Cl)c2)cc1 [Example 11, 4-Chlorobenzyl 3,4-dichlorophenyl ether]	0.33	–	–
Clc1ccc(CCCc2ccccc2)cc1Cl [Example 12, 1-(3,4-dichlorophenyl)-3-phenylpropane]	0.068	–	total inhibition
OC(CCc1ccc(Cl)cc1)c1ccc(Cl)cc1 (stereo not drawn) [Example 13, 1,3-bis-(4-chlorophenyl)propan-1-ol]	1.3	–	–
OC(CCc1ccc(Cl)c(Cl)c1)c1ccccc1 (stereo not drawn) [Example 14, 3-(3,4-dichlorophenyl)-1-phenylpropan-1-ol]	0.66	–	–
O=C(CCc1ccc(Cl)c(Cl)c1)c1ccccc1 [Example 15, 3-(3,4-dichlorophenyl)-1-phenylpropan-1-one]	0.235	–	–
Clc1ccc(CC=Cc2ccccc2)cc1Cl [Example 16, 3-(3,4-dichlorophenyl)-1-phenylpropene]	0.19	–	–
OC(C=Cc1ccc(Cl)c(Cl)c1)c1ccccc1 (stereo not drawn) [Example 17, 3-(3,4-dichlorophenyl)-l-phenylprop-2-en-l-ol]	1.2	–	–
OC(C=Cc1ccc(Cl)cc1)c1ccc(Cl)cc1 (stereo not drawn) [Example 18, 1,3-bis-(4-chlorophenyl)prop-2-en-1-ol]	1.35	–	–
OC(COc1ccc(Cl)cc1)c1ccc(Cl)cc1 (stereo not drawn) [Example 19, 2-(4-chlorophenoxy)-1-(4-chlorophenyl)ethanol]	1.5	–	–
OC(COc1ccc(Cl)c(Cl)c1)c1ccccc1 (stereo not drawn) [Example 20, 2-(3,4-dichloro^phenoxy)-l-phenylethanol]	2.5	–	–
NC(=S)c1ccc(OCc2ccc(Cl)cc2)cc1 [Example 21, 4-(4-chlorobenzyloxy)benzenecarbothioamide]	0.6	–	–
NC(=O)c1ccc(OCc2ccc(Cl)cc2)cc1 [Example 22, 4-(4-chlorobenzyloxy)benzamide]	0.43	–	–
OCc1cccc(OCc2ccc(Cl)cc2)c1 [Example 23, 4-chlorobenzyl 3-hydroxymethylphenyl ether]	0.53	–	–
OC(CNc1ccc(Cl)cc1)c1ccc(Cl)cc1 (stereo not drawn) [Example 24, 2-(4-chloroanilino)-1-(4-chlorophenyl)ethanol]	3	–	–
